Type in all cases: physicochemical
Series [1] can be described thus: Solid-state stability of crystal forms at ambient conditions. The source says: The following sections describe and summarize the physical properties of each of the crystal forms observed for mirdametinib.
Series [2] can be described thus: Desolvation/dehydration by heating in TGA pan to 100° C. The following applies: 15° C./min from 25 to 100° C., 5 min. hold at 100° C., air-cooled to RT. The protocol:
Desolvation/dehydration studies of certain forms were conducted in a TGA pan with loose lid at a heating rate of 15° C./min from 25 to 100° C. with a 5 min. hold at 100° C. Samples were air-cooled to RT on the TGA and analyzed by PXRD if crystalline. […] PXRD indicated Form I.

Series [3] is described as follows: Drying of certain forms via vacuum oven at 45° C. The following applies: overnight in vacuum oven at 45° C.; PXRD at about 70% ambient lab humidity. The protocol:
Drying studies for certain forms were conducted overnight in a vacuum oven at 45° C. After drying, samples were equilibrated to RT for 10 min. and analyzed by PXRD at about 70% ambient lab humidity.

The nature of series [4]: Toluene-spiked slurry studies of Form V in water:ethanol. The following applies: water:ethanol (1.1/0.5 v/v) overnight at RT. The source says: The process-relevant toluene solvate (Form V) was stirred in water:ethanol (1.1/0.5 v/v) overnight at RT with varying amounts of added toluene. The suspensions were filtered, and solids analyzed by PXRD.
A short description of series [5]: Water activity studies of hydrates at 23° C. The following applies: water activities (aw) 0.6-0.99. The protocol: Water activity studies of the stable hydrated Forms VI and XIX were conducted to determine their relative thermodynamic stabilities. The studies were conducted at 23° C. in various water/ethanol mixtures to provide water activities (aw) from 0.6-0.99. The water activity range includes the approximate water activity of the current final isolation step of the mirdametinib manufacturing process. Saturated suspensions were prepared by stirring an excess of mirdametinib in the test solvents for 16 hours. The suspensions were filtered and transferred onto mixtures containing equivalent amounts of Form VI and Form XIX. […] The hydrates may be kinetically favored at higher water activities.

Series [6] can be described thus: Physical stability of amorphous mirdametinib on storage (PXRD, PLM). The following applies: after 1 day at ambient. The protocol: Solutions of mirdametinib (100 mg/mL) were prepared in methanol and THF, and each solution was divided into three equal parts to be used for 1) open at RT stability evaluation, 2) closed at RT stability evaluation, and 3) closed at −20° C. stability evaluation.
PXRD analyses of all six samples (three from both methanol and THF) following rapid evaporation indicated an amorphous state. Other analyses (e.g. PLM, TGA-IR, DSC) were performed on one sample from each solvent. Following initial analyses, one sample from each solvent was stored at RT in an open vial, at RT in a capped vial, and at −20° C. in a capped vial.

For `O=C(NOC[C@H](O)CO)c1ccc(F)c(F)c1Nc1ccc(I)cc1F` [Form VI, N—((R)-2,3-dihydroxypropoxy)-3,4-difluoro-2-(2-fluoro-4-iodo-phenylamino)-benzamide], the “Stable in solid-state at ambient conditions for” value in series [1] (solid-state, ambient conditions) is reported as no less than 2 weeks. In addition, the “Result of desolvation/dehydration by heating” value in series [2] is “melted and solidified in molten, amorphous state, possible decomposition”. The “Form after vacuum oven drying (PXRD)” value in series [3] is listed as “Partially converted to Form A”.

`O=C(NOC[C@H](O)CO)c1ccc(F)c(F)c1Nc1ccc(I)cc1F` [Form XIII, N—((R)-2,3-dihydroxypropoxy)-3,4-difluoro-2-(2-fluoro-4-iodo-phenylamino)-benzamide]: the “Form after vacuum oven drying (PXRD)” value in series [3] is listed as “Form XIII/Form IV mixture converted to Form IV”.

Consider `O=C(NOC[C@H](O)CO)c1ccc(F)c(F)c1Nc1ccc(I)cc1F` [Form V, N—((R)-2,3-dihydroxypropoxy)-3,4-difluoro-2-(2-fluoro-4-iodo-phenylamino)-benzamide], for which, in series [1] (ambient conditions), the “Stable at ambient conditions for” value was no less than 10 days. For the same compound, the “Result of desolvation/dehydration by heating” value in series [2] is “melted and solidified in molten, amorphous state, possible decomposition”. Also, in series [3], the “Form after vacuum oven drying (PXRD)” value was “Remained unchanged”. Also, the “Form after slurry (PXRD)” value is “converted to mostly Form IV with some lesser amount of Form V” in series [4] (0.5% added toluene (relative to mirdametinib weight)); “higher relative amounts of Form V were observed” in series [4] (1% and 2% added toluene); “converted to phase-pure Form IV” in series [4] (no added toluene).

As to `O=C(NOC[C@H](O)CO)c1ccc(F)c(F)c1Nc1ccc(I)cc1F` [Form IV, N—((R)-2,3-dihydroxypropoxy)-3,4-difluoro-2-(2-fluoro-4-iodo-phenylamino)-benzamide], in series [5], the “Relative stability versus hydrate Forms VI and XIX” value was “more stable at water activities (aw) 0.6-0.99 than hydrate Forms VI and XIX”.

For `O=C(NOC[C@H](O)CO)c1ccc(F)c(F)c1Nc1ccc(I)cc1F` [Form XIX, N—((R)-2,3-dihydroxypropoxy)-3,4-difluoro-2-(2-fluoro-4-iodo-phenylamino)-benzamide], the “Stable in a capped vial for” value in series [1] (capped vial) is given as no less than 2 weeks. Further, the “Result of desolvation/dehydration by heating” value in series [2] is given as “solid particles (not melted). PXRD indicated Form I”. The “Form after vacuum oven drying (PXRD)” value in series [3] was “Remained unchanged”.

Turning to `O=C(NOC[C@H](O)CO)c1ccc(F)c(F)c1Nc1ccc(I)cc1F` [A- 2], the “Results (solid form after 1 day at ambient)” value in series [6] is “Form IV”.

These data come from patent US12275688B2, “Crystalline solids of MEK inhibitor N-((R)-2,3-dihydroxypropoxy)-3,4-difluoro-2-(2-fluoro-4-iodo-phenylamino)-benzamide and uses thereof” (SpringWorks Therapeutics, Inc., priority 2021, dated 2025).
